Source: patent publication US20240391900A1, “RIP1 KINASE INHIBITOR AND USE THEREOF” (SIRONAX (BEIJING) CO., LTD., priority 2021, published 2024)

Test system: HT-29 human colon cancer cells
Test: In vitro biological activity assay: inhibition of TNFα/SmacM/Z_VAD FMK-induced programmed necrosis, CellTiter-Glo viability
Format: cell-based
Conditions: HT-29 cells, necrosis induced with TNF-α 100 ng/mL, SmacM 100 nM, Z_VAD-FMK 10 μM, overnight, cell viability by chemiluminescence
Protocol: In order to verify the inhibitory effect of the compounds of the present disclosure on programmed necrosis at the cellular level, a type of cells closely related to the RIP1 pathway, namely HT-29 human colon cancer cells, were selected. The used activation mode is a combination of tumor necrosis factor (TNFα), cysteine aspartate activator mimic (SmacM) and pan-caspase inhibitor Z_VAD FMK, and the cell viability was calculated by detecting chemiluminescence values, thus obtaining the biological activity of the compound inhibiting the programmed necrosis of cells.
Cell line: HT-29 (ATCC® HTB-38™)
• 2.1. The Growth Status of HT-29 Cells was Regularly Checked to Ensure their Normal Growth. • 2.2. McCOY's 5A culture medium containing 10% FBS was preheated in a 37° C. water bath for 30 minutes. When the culture medium was ready for use, the cell passage and inoculation was performed in a Class II safety cabinet with aseptic technique. • 2.3. In a T75 culture flask, when the growth density of cells reached the abundance of approximately 80%, the culture medium was aspirated and cells were washed twice with pre-warmed PBS. • 2.4. 2-3 mL of trypsin (Gibco, catalog number 25200-056) was added and the T75 culture flask was transferred to a 37° C. incubator. • 2.5. After 3-5 minutes, the side of the culture flask was tapped and examined under a microscope for detachment of the cells to the flask. If necessary, the cells were placed back into the incubator to wait for another 5-10 minutes until 85% of the cells were detached from each other. • 2.6. 6-9 mL of complete cell culture medium was quickly added to terminate the trypsin reaction, and then the cells were transferred to a sterile 15 mL centrifuge tube. The cells were pelleted by centrifugation at 300 g for 5-7 minutes in a centrifuge, and then the supernatant was decanted. • 2.7. The cells were resuspended in 10 mL of fresh cell culture medium and the cells were counted by using a hemocytometer. • 2.8. 3,000 cells contained in 100 μL were inoculated into each well of a sterile 96-well cell culture plate (Corning 3903) and cultured overnight at 37° C. under 5% CO2.
• 3.1. All batches of compounds were dissolved in dimethyl sulfoxide (DMSO) to prepare a 20 mM stock. • 3.2. 3 μL of 20 mM stock of each compound was added to 27 μL of DMSO and mixed thoroughly, and then diluted at a dilution ratio of […] (20 μL compound+40 μL DMSO) until the 10-12 points ended. After the compounds were diluted, they were set aside for use. • 3.3. The cell culture plate was taken out from the incubator, washed once with PBS, and replaced with a fresh culture medium free of serum. A mixture of TNF-α (100 ng/mL), SMAC mimic (SmacM, 100 nM) and Z_VAD-FMK (10 μM) was added to induce the programmed necrosis in HT-29 cells. • 3.4. The compound dilution plate was prepared, 0.5 μL of the diluted compound was added to the corresponding 96-well plate, and mixed gently. Two duplicate wells were prepared for each compound. • 3.5. The treated 96-well plate to which the compounds had been added was placed back into the 37° C. incubator containing 5% CO2 and incubated overnight.
The luminescence cell viability detection kit was used to calculate the activity of the compound by measuring the ATP content in viable cells. • 4.1. The CellTiter-Glo® buffer and dry powdered substrate were equilibrated to room temperature before use. • 4.2. The CellTiter-Glo® substrate was resuspended with Cell Titer-Glo® buffer, then homogeneously mixed by gently vortexing. • 4.3. The cell culture plate was taken out and equilibrated at room temperature for 10 minutes (usually not suitable if more than 30 minutes). • 4.4. 20 μL of enzyme/substrate mixture was added into the 96-well assay plate with a multi-channel pipettor. • 4.5. The 96-well assay plate was placed on a shaker and the content was mixed for 2-3 minutes to promote the cell lysis. • 4.6. […]

| SMILES | EC50 |
| --- | --- |
| C(#Cc1cnc2cccnn12)c1cc(-n2cc3c(n2)C(c2ccccc2)CC3)ncn1 (stereo not drawn) [Compound 8, 3-((6-(6-phenyl-5,6-dihydrocyclopenta[c]pyrazol-2 (4H)-yl)pyrimidine-4-yl)ethynyl)imidazo[1,2-b]pyridazine] | 100 to 1000 nM |
| Oc1cnc(C#Cc2cncc(-n3cc4c(n3)C(c3ccccc3)CC4)c2)cn1 (stereo not drawn) [Compound 12, 5-((5-(6-phenyl-5,6-dihydrocyclopenta[c]pyrazol-2 (4H)-yl)pyridin-3-yl)ethynyl)pyrazine-2-ol] | > 1000 nM |
| Nc1ncc(C#Cc2cncc(-n3cc4c(n3)[C@@H](c3ccccc3)CC4)c2)cn1 [Compound 13, (R)-5-((5-(6-phenyl-5,6-dihydrocyclopenta[c]pyrazol-2 (4H)-yl)pyridin-3-yl)ethynyl)pyrimidin-2-amine] | ≤ 100 nM |
| Nc1ccc(C#Cc2cncc(-n3cc4c(n3)C(c3ccccc3)CC4)c2)nn1 (stereo not drawn) [Compound 17, 6-((5-(6-phenyl-5,6-dihydrocyclopenta[c]pyrazol-2 (4H)-yl)pyridin-3-yl)ethynyl)pyridazine-3-amine] | ≤ 100 nM |
| Nc1cnc(C#Cc2cncc(-n3cc4c(n3)C(c3ccccc3)CC4)c2)cn1 (stereo not drawn) [Compound 18, 5-((5-(6-phenyl-5,6-dihydrocyclopenta[c]pyrazol-2 (4H)-yl)pyridin-3-yl)ethynyl)pyrazine-2-amine] | ≤ 100 nM |
| Nc1ncc(C#Cc2cncc(-n3cc4c(n3)C(c3cncc(F)c3)CC4)c2)cn1 (stereo not drawn) [Compound 19, 5-((5-(6-(5-fluoropyridin-3-yl)-5,6-dihydrocyclopenta[c]pyrazol-2 (4H)-yl)pyridin-3-yl)ethynyl)pyrimidin-2-amine] | ≤ 100 nM |
| N#Cc1cc(F)cc(C2CCc3cn(-c4cncc(C#Cc5cnc(N)nc5)c4)nc32)c1 (stereo not drawn) [Compound 20, 3-(2-(5-((2-aminopyrimidin-5-yl)ethynyl)pyridin-3-yl)-2,4,5,6-tetrahydrocyclopenta[c]pyrazol-6-yl)-5-fluorobenzonitrile] | ≤ 100 nM |
| Cn1cc(C#Cc2cncc(-n3cc4c(n3)[C@H](c3ccccc3)CC4)c2)cnc1=O [Compound 21, (S)-1-methyl-5-((5-(6-phenyl-5,6-dihydrocyclopenta[c]pyrazol-2 (4H)-yl)pyridin-3-yl)ethynyl)pyrimidine-2 (1H)-one] | 100 to 1000 nM |
| Cc1cnn(C)c1C#Cc1cccc(-n2cc3c(n2)C(c2ccccc2)CC3)c1 (stereo not drawn) [Compound 22, 2-(3-((1,4-dimethyl-1H-pyrazole-5-yl)ethynyl)phenyl)-6-phenyl-2,4,5,6-tetrahydrocyclopenta[c]pyrazole] | ≤ 100 nM |
| Cn1nccc1C#Cc1cccc(-n2cc3c(n2)C(c2ccccc2)CC3)c1 (stereo not drawn) [Compound 23, 2-(3-((1-methyl-1H-pyrazole-5-yl)ethynyl)phenyl)-6-phenyl-2,4,5,6-tetrahydrocyclopenta[c]pyrazole] | ≤ 100 nM |
| Cn1cc(C#Cc2cccc(-n3cc4c(n3)C(c3ccccc3)CC4)c2)cn1 (stereo not drawn) [Compound 25, 2-(3-((1-methyl-iH-pyrazole-4-yl)ethynyl)phenyl)-6-phenyl-2,4,5,6-tetrahydrocyclopenta[c]pyrazole] | ≤ 100 nM |
| C(#Cc1cnc2cccnn12)c1cncc(-n2cc3c(n2)C(c2ccccc2)CC3)n1 (stereo not drawn) [Compound 26, 3-((6-(6-phenyl-5,6-dihydrocyclopenta[c]pyrazol-2 (4H)-yl)pyrazin-2-yl)ethynyl)imidazo[1,2-b]pyridazine] | ≤ 100 nM |
| C(#Cc1cnc2cccnn12)c1ccnc(-n2cc3c(n2)C(c2ccccc2)CC3)c1 (stereo not drawn) [Compound 27] | ≤ 100 nM |
| Nc1ncc(C#Cc2cncc(-n3cc4c(n3)C(c3ccccc3)CC4)n2)cn1 (stereo not drawn) [Compound 29] | ≤ 100 nM |
| Cc1cncc(C#Cc2cccc(-n3cc4c(n3)C(c3ccccc3)CC4)c2)c1 (stereo not drawn) [Compound 34, 2-(3-((5-methylpyridin-3-yl)ethynyl)phenyl)-6-phenyl-2,4,5,6-tetrahydrocyclopenta[c]pyrazole] | ≤ 100 nM |
| Cc1ccc(C#Cc2cccc(-n3cc4c(n3)C(c3ccccc3)CC4)c2)cn1 (stereo not drawn) [Compound 35, 2-(3-((6-methylpyridin-3-yl)ethynyl)phenyl)-6-phenyl-2,4,5,6-tetrahydrocyclopenta[c]pyrazole] | ≤ 100 nM |
| Clc1ncc(C#Cc2cncc(-n3cc4c(n3)C(c3ccccc3)CC4)c2)cn1 (stereo not drawn) [Compound 41, 2-(5-((2-chloropyrimidin-5-yl)ethynyl)pyridin-3-yl)-6-phenyl-2,4,5,6-tetrahydrocyclopenta[c]pyrazole] | 100 to 1000 nM |
| Cc1c(C#Cc2cnc(N)nc2)cncc1-n1cc2c(n1)C(c1ccccc1)CC2 (stereo not drawn) [Compound 43, 5-((4-methyl-5-(6-phenyl-5,6-dihydrocyclopenta[c]pyrazol-2 (4H)-yl)pyridine-3-yl)ethynyl)pyrimidin-2-amine] | ≤ 100 nM |
| Nc1ncc(C#Cc2cncc(-n3cc4c(n3)[C@H](c3cccc(F)c3)CC4)c2)cn1 [Compound 46] | ≤ 100 nM |
| Nc1ncc(C#Cc2cncc(-n3cc4c(n3)[C@@H](c3cccc(F)c3)CC4)c2)cn1 [Compound 47, (R)-5-((5-(6-(3-fluorophenyl)-5,6-dihydrocyclopenta[c]pyrazol-2 (4H)-yl)pyridine-3-yl)ethynyl)pyrimidin-2-amine] | ≤ 100 nM |
| Nc1ncc(C#Cc2cncc(-n3cc4c(n3)C(c3cc(F)cc(F)c3)CC4)c2)cn1 (stereo not drawn) [Compound 48] | ≤ 100 nM |
| Nc1ncc(C#Cc2cncc(-n3cc4c(n3)[C@@H](c3cc(F)cc(F)c3)CC4)c2)cn1 [Compound 49, (R)-5-((5-(6-(3,5-difluorophenyl)-5,6-dihydrocyclopenta[c]pyrazol-2 (4H)-yl)pyridin-3-yl)ethynyl)pyrimidin-2-amine] | ≤ 100 nM |
| Nc1ncc(C#Cc2cncc(-n3cc4c(n3)[C@H](c3cc(F)cc(F)c3)CC4)c2)cn1 [Compound 50, (S)-5-((5-(6-(3,5-difluorophenyl)-5,6-dihydrocyclopenta[c]pyrazol-2 (4H)-yl)pyridin-3-yl)ethynyl)pyrimidin-2-amine] | ≤ 100 nM |
| C(#Cc1cnc2cccnn12)c1cccc(-n2nc3c(n2)C(c2ccccc2)CC3)c1 (stereo not drawn) [Compound 53, 3-((3-(4-phenyl-5,6-dihydrocyclopenta[d][1,2,3]triazol-2 (4H)-yl)phenyl)ethynyl)imidazo[1,2-b]pyridazine] | ≤ 100 nM |
| Cn1c(-n2nc3c(n2)C(c2cncc(F)c2)CC3)cc(C#Cc2cnc(N)nc2)cc1=O (stereo not drawn) [Compound 59, 4-((2-aminopyrimidin-5-yl)ethynyl)-6-(4-(5-fluoropyridin-3-yl)-5,6-dihydrocyclopenta[d][1,2,3]triazol-2 (4H)-yl)-1-methylpyridin-2 (1H)-one] | ≤ 100 nM |
| Nc1ncc(C#Cc2c[nH]c(=O)c(-n3nc4c(n3)C(c3ccccc3)CC4)c2)cn1 (stereo not drawn) [Compound 60, 5-((2-aminopyrimidin-5-yl)ethynyl)-3-(4-phenyl-5,6-dihydrocyclopenta[d][1,2,3]triazol-2 (4H)-yl)pyridine-2 (1H)-one] | > 1000 nM |
| Cc1ncc(C#Cc2cnc(N)nc2)cc1-n1nc2c(n1)C(C1CCCCC1)CC2 (stereo not drawn) [Compound 64, 5-((5-(4-cyclohexyl-5,6-dihydrocyclopenta[d][1,2,3]triazol-2 (4H)-yl)-6-methylpyridin-3-yl)ethynyl)pyrimidin-2-amine] | ≤ 100 nM |
